Values of other authors in patent publication US11248001B2, “PCSK9 inhibitors and methods of use thereof” (ASTRAZENECA AB, priority 2019, dated 2022).

B1: evolocumab (antibody, chains of the INN, looked up, V domains shown)
VH: EVQLVQSGAEVKKPGASVKVSCKASGYTLTSYGISWVRQAPGQGLEWMGWVSFYNGNTNYAQKLQGRGTMTTDPSTSTAYMELRSLRSDDTAVYYCARGYGMDVWGQGTTVTVSS
VL: ESALTQPASVSGSPGQSITISCTGTSSDVGGYNSVSWYQQHPGKAPKLMIYEVSNRPSGVSNRFSGSKSGNTASLTISGLQAEDEADYYCNSYTSTSMVFGGGTKLTVL

Details: clinical trials, patients

Row | Molecule | decrease in LDL levels
1 | alirocumab | about 50%
2 | B1 | 60-75%
